Assays:
[1] = molecular target: T1, K. pneumoniae PPK1 (KP) (Klebsiella pneumoniae, UniProt A6TCB5); assay: biochemical; set-up: gene ppk
[2] = molecular target: T2, PPK1A (Acinetobacter baumannii, UniProt A0A0D5YJ41); assay: polyP synthesis kinetics with purified enzyme, varying ATP; type: biochemical
T2 construct: gene ppk1; AB5075 PPK1A (ABUW_2072), C-terminal His6-tag

[3] = molecular target: T3, PPK1B (Acinetobacter baumannii, UniProt A0A0D5YLD5); assay: as above; type: biochemical
T3 construct: gene ppk2; AB5075 PPK1B (ABUW_2907), N-terminal His6-tag
T3 sequence (A0A0D5YLD5 entry or part of it): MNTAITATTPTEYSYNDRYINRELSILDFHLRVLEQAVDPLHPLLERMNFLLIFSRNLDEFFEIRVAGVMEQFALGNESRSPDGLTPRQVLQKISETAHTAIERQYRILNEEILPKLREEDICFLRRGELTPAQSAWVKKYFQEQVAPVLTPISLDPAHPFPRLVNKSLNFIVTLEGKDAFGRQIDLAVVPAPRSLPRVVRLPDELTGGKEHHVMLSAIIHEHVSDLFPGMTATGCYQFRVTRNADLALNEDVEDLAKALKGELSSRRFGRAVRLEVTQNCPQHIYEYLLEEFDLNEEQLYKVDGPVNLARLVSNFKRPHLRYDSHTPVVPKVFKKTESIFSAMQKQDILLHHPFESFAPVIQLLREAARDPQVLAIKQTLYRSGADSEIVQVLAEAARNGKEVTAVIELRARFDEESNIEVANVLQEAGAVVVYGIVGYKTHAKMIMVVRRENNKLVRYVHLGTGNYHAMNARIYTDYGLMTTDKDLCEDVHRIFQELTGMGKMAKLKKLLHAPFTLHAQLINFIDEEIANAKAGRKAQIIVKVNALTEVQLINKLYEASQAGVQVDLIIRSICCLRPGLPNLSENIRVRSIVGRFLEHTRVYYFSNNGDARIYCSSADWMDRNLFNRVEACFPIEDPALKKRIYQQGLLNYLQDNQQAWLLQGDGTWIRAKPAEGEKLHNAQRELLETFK

[4] = molecular target: T1, K. pneumoniae PPK1 (KP); assay: polyP synthesis, toluidine blue A630/[…]; type: biochemical; set-up: gene ppk; codon-optimised gene in pET28a, C-terminal His6-tag, E. coli BL21, Ni-NTA purified

T1 sequence (A6TCB5 entry or part of it): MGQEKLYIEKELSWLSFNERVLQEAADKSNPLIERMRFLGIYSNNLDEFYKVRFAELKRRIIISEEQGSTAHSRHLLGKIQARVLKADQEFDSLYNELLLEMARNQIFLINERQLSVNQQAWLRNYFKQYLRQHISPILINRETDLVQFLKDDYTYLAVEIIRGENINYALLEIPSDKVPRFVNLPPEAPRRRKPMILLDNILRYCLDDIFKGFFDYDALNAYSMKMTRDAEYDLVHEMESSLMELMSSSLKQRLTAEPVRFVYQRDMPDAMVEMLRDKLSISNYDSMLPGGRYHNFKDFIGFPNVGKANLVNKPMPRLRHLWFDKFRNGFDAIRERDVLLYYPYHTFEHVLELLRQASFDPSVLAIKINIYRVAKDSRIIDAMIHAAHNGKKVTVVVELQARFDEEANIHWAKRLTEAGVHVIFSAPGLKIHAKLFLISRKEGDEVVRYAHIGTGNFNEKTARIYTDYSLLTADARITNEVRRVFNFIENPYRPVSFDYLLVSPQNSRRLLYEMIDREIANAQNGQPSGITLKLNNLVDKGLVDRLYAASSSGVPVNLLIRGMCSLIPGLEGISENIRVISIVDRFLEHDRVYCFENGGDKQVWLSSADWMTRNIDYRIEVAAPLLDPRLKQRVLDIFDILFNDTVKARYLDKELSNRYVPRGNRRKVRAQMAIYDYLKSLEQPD
T2 sequence (A0A0D5YJ41 entry or part of it): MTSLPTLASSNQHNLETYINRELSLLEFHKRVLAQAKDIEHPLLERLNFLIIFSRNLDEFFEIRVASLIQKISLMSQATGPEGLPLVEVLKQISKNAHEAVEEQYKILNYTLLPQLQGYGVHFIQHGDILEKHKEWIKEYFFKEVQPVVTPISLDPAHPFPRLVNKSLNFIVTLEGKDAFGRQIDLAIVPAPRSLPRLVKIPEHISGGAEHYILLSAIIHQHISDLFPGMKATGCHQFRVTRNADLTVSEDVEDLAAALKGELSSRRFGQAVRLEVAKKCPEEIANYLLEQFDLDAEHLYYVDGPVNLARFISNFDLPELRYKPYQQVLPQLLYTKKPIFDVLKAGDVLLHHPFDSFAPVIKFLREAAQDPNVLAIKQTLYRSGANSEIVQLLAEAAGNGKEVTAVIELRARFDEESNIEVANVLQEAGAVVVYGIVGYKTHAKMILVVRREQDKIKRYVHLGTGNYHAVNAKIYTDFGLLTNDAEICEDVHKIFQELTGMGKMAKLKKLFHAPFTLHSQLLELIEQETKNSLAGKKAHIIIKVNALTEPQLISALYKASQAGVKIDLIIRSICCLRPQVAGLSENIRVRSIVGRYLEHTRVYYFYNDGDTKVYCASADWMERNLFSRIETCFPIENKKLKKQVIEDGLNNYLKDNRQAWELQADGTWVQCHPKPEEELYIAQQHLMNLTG

`Nc1ncnc2c1ncn2[C@@H]1O[C@H](COP(=O)(O)OP(=O)(O)OP(=O)(O)O)[C@@H](O)[C@H]1O` [ATP] gave a Ki [1] of 9.33 ± 1.69 mM.
`O=C1OC2(c3ccccc31)c1ccc(O)c(O)c1Oc1c2ccc(O)c1O` [gallein] was tested, and the “polyP synthesis kinetics with purified enzyme, varying ATP” value [2] was “Both PPK1A and PPK1B were capable of in vitro polyP synthesis, and also exhibited inhibition by gallein”, the “polyP synthesis kinetics with purified enzyme, varying ATP” value [3] was “Both PPK1A and PPK1B were capable of in vitro polyP synthesis, and also exhibited inhibition by gallein” and the IC50 [4] was 0.0165 mM.

From article PMC8576328, “Broad-Spectrum Inhibitor of Bacterial Polyphosphate Homeostasis Attenuates Virulence Factors and Helps Reveal Novel Physiology of Klebsiella pneumoniae and Acinetobacter baumannii” (Frontiers in Microbiology, 2021)
